Measurements published in PubChem BioAssay (NCI).
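Grown in 96-well plates, cells were treated for 48 hours with each compound at five concentrations. Insufficient inhibition: endpoint recorded as highest concentration tested. GI50: concentration for 50% inhibition of growth. At the TGI there is no net growth.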

Assays:
Assay in all cases: NCI anticancer screen, dose series, 48 h
[1] = tested on: 786-0 renal
[2] = tested on: A549 NSCLC
[3] = tested on: ACHN renal
[4] = tested on: BT-549 breast
[5] = tested on: CAKI-1 renal
[6] = tested on: CCRF-CEM leukemia
[7] = tested on: COLO 205 colon
[8] = tested on: DU-145 prostate
[9] = tested on: HCC-2998 colon
[10] = tested on: HCT-116 colon
[11] = tested on: HCT-15 colon
[12] = tested on: HL-60(TB) leukemia
[13] = tested on: HOP-62 NSCLC
[14] = tested on: HOP-92 NSCLC
[15] = tested on: HS 578T breast
[16] = tested on: HT29 colon
[17] = tested on: IGROV1 ovarian
[18] = tested on: K-562 leukemia
[19] = tested on: KM12 colon
[20] = tested on: LOX IMVI melanoma
[21] = tested on: M14 melanoma
[22] = tested on: MALME-3M melanoma
[23] = tested on: MCF7 breast
[24] = tested on: MDA-MB-231 breast
[25] = tested on: MDA-MB-435
[26] = tested on: MOLT-4 leukemia
[27] = tested on: NCI-H226 lung
[28] = tested on: NCI-H23 lung
[29] = tested on: NCI-H460 lung
[30] = tested on: NCI-H522 lung
[31] = tested on: NCI/ADR-RES ovarian
[32] = tested on: OVCAR-3 ovarian
[33] = tested on: OVCAR-4 ovarian
[34] = tested on: OVCAR-5 ovarian
[35] = tested on: OVCAR-8 ovarian
[36] = tested on: PC-3 prostate
[37] = tested on: RPMI-8226 leukemia
[38] = tested on: RXF 393 renal
[39] = tested on: SF-268 CNS
[40] = tested on: SF-295 CNS
[41] = tested on: SF-539 CNS
[42] = tested on: SK-MEL-2 melanoma
[43] = tested on: SK-MEL-28 melanoma
[44] = tested on: SK-MEL-5 melanoma
[45] = tested on: SK-OV-3 ovarian
[46] = tested on: SN12C renal
[47] = tested on: SNB-19 CNS
[48] = tested on: SNB-75 CNS
[49] = tested on: SR leukemia
[50] = tested on: SW-620 colon
[51] = tested on: T-47D breast
[52] = tested on: TK-10 renal
[53] = tested on: U251 CNS
[54] = tested on: UACC-257 melanoma
[55] = tested on: UACC-62 melanoma
[56] = tested on: UO-31 renal

Which GI50 [1] does the source give for `COc1ccc(-c2cc(/C=C3\C(=O)Nc4ccc(OC)cc43)[nH]n2)cc1` here?
The GI50 was over 100 µM.

And the TGI [1]?
Its TGI is over 100 µM.

What about the GI50 [2] of the same compound?
The GI50 was over 100 µM.

And the TGI [2]?
The TGI was over 100 µM.

What about the GI50 [3] of the same compound?
The GI50 was over 100 µM.

And the TGI [3]?
The TGI was over 100 µM.

And the GI50 [4]?
The GI50 was over 100 µM.

And the TGI [4]?
The TGI was over 100 µM.

And the GI50 [5]?
The GI50 was over 100 µM.

And the TGI [5]?
The TGI was over 100 µM.

And the GI50 [6]?
The GI50 was over 100 µM.

And the TGI [6]?
Its TGI is over 100 µM.

What about the GI50 [7] of the same compound?
Its GI50 is 4.53 µM.

What about the TGI [7] of the same compound?
Its TGI is over 100 µM.

And the GI50 [8]?
The GI50 was over 100 µM.

And the TGI [8]?
Its TGI is over 100 µM.

And the GI50 [9]?
Its GI50 is over 100 µM.

What about the TGI [9] of the same compound?
The TGI was over 100 µM.

What about the GI50 [10] of the same compound?
Its GI50 is 9.08 µM.

And the TGI [10]?
Its TGI is over 100 µM.

What about the GI50 [11] of the same compound?
The GI50 was 0.687 µM.

And the TGI [11]?
The TGI was over 100 µM.

What about the GI50 [12] of the same compound?
Its GI50 is 0.821 µM.

What about the TGI [12] of the same compound?
The TGI was over 100 µM.

What about the GI50 [13] of the same compound?
The GI50 was 10.6 µM.

And the TGI [13]?
The TGI was over 100 µM.

And the GI50 [14]?
Its GI50 is over 100 µM.

What about the TGI [14] of the same compound?
The TGI was over 100 µM.

And the GI50 [15]?
The GI50 was 16.8 µM.

And the TGI [15]?
Its TGI is over 100 µM.

And the GI50 [16]?
Its GI50 is 1.58 µM.

What about the TGI [16] of the same compound?
The TGI was over 100 µM.

And the GI50 [17]?
Its GI50 is over 100 µM.

And the TGI [17]?
The TGI was over 100 µM.

What about the GI50 [18] of the same compound?
Its GI50 is 0.479 µM.

What about the TGI [18] of the same compound?
Its TGI is over 100 µM.

What about the GI50 [19] of the same compound?
The GI50 was 1.62 µM.

And the TGI [19]?
Its TGI is over 100 µM.

What about the GI50 [20] of the same compound?
Its GI50 is 14 µM.

What about the TGI [20] of the same compound?
The TGI was over 100 µM.

And the GI50 [21]?
Its GI50 is over 100 µM.

What about the TGI [21] of the same compound?
Its TGI is over 100 µM.

And the GI50 [22]?
Its GI50 is over 100 µM.

What about the TGI [22] of the same compound?
The TGI was over 100 µM.

What about the GI50 [23] of the same compound?
Its GI50 is 0.732 µM.

And the TGI [23]?
The TGI was over 100 µM.

What about the GI50 [24] of the same compound?
The GI50 was over 100 µM.

What about the TGI [24] of the same compound?
The TGI was over 100 µM.

And the GI50 [25]?
The GI50 was 0.317 µM.

What about the TGI [25] of the same compound?
The TGI was 26.1 µM.

What about the GI50 [26] of the same compound?
The GI50 was over 100 µM.

What about the TGI [26] of the same compound?
Its TGI is over 100 µM.

And the GI50 [27]?
Its GI50 is over 100 µM.

What about the TGI [27] of the same compound?
Its TGI is over 100 µM.

And the GI50 [28]?
Its GI50 is over 100 µM.

What about the TGI [28] of the same compound?
The TGI was over 100 µM.

And the GI50 [29]?
Its GI50 is 5.45 µM.

And the TGI [29]?
The TGI was over 100 µM.

And the GI50 [30]?
The GI50 was 11 µM.

What about the TGI [30] of the same compound?
The TGI was over 100 µM.

And the GI50 [31]?
The GI50 was 31.8 µM.

What about the TGI [31] of the same compound?
The TGI was over 100 µM.

And the GI50 [32]?
The GI50 was 68.9 µM.

What about the TGI [32] of the same compound?
Its TGI is over 100 µM.

And the GI50 [33]?
The GI50 was over 100 µM.

And the TGI [33]?
Its TGI is over 100 µM.

And the GI50 [34]?
Its GI50 is over 100 µM.

What about the TGI [34] of the same compound?
The TGI was over 100 µM.

And the GI50 [35]?
Its GI50 is 19.5 µM.

What about the TGI [35] of the same compound?
Its TGI is over 100 µM.

And the GI50 [36]?
The GI50 was over 100 µM.

And the TGI [36]?
The TGI was over 100 µM.

What about the GI50 [37] of the same compound?
Its GI50 is over 100 µM.

And the TGI [37]?
The TGI was over 100 µM.

What about the GI50 [38] of the same compound?
The GI50 was 55 µM.

And the TGI [38]?
Its TGI is over 100 µM.

What about the GI50 [39] of the same compound?
Its GI50 is 27.4 µM.

And the TGI [39]?
Its TGI is over 100 µM.

What about the GI50 [40] of the same compound?
Its GI50 is 2.89 µM.

And the TGI [40]?
Its TGI is over 100 µM.

And the GI50 [41]?
Its GI50 is 6.67 µM.

What about the TGI [41] of the same compound?
Its TGI is over 100 µM.

And the GI50 [42]?
The GI50 was 43.5 µM.

And the TGI [42]?
The TGI was over 100 µM.

And the GI50 [43]?
The GI50 was over 100 µM.

And the TGI [43]?
The TGI was over 100 µM.

What about the GI50 [44] of the same compound?
The GI50 was 4.46 µM.

And the TGI [44]?
Its TGI is over 100 µM.

And the GI50 [45]?
Its GI50 is 73.2 µM.

And the TGI [45]?
The TGI was over 100 µM.

And the GI50 [46]?
The GI50 was over 100 µM.

What about the TGI [46] of the same compound?
The TGI was over 100 µM.

And the GI50 [47]?
Its GI50 is 77.2 µM.

And the TGI [47]?
Its TGI is over 100 µM.

What about the GI50 [48] of the same compound?
The GI50 was 3.19 µM.

What about the TGI [48] of the same compound?
The TGI was 25.5 µM.

And the GI50 [49]?
The GI50 was 0.595 µM.

What about the TGI [49] of the same compound?
Its TGI is over 100 µM.

What about the GI50 [50] of the same compound?
Its GI50 is 0.912 µM.

What about the TGI [50] of the same compound?
Its TGI is over 100 µM.

What about the GI50 [51] of the same compound?
The GI50 was over 100 µM.

What about the TGI [51] of the same compound?
Its TGI is over 100 µM.

And the GI50 [52]?
The GI50 was over 100 µM.

And the TGI [52]?
Its TGI is over 100 µM.

And the GI50 [53]?
Its GI50 is 31.5 µM.

And the TGI [53]?
The TGI was over 100 µM.

What about the GI50 [54] of the same compound?
Its GI50 is over 100 µM.

What about the TGI [54] of the same compound?
The TGI was over 100 µM.

And the GI50 [55]?
Its GI50 is 6.43 µM.

What about the TGI [55] of the same compound?
The TGI was over 100 µM.

What about the GI50 [56] of the same compound?
The GI50 was over 100 µM.

What about the TGI [56] of the same compound?
Its TGI is over 100 µM.
